Measured values taken from PMC8566422, “Thermodynamics of semi-specific ligand recognition: the binding of dipeptides to the E.coli dipeptide binding protein DppA” (European Biophysics Journal, 2021).
Where a SMILES comes first, the peptide text is derived from it.

Molecular target: T1, DppA (E. coli dipeptide binding protein) (Escherichia coli, UniProt P23847)
T1 sequence (P23847 29-535): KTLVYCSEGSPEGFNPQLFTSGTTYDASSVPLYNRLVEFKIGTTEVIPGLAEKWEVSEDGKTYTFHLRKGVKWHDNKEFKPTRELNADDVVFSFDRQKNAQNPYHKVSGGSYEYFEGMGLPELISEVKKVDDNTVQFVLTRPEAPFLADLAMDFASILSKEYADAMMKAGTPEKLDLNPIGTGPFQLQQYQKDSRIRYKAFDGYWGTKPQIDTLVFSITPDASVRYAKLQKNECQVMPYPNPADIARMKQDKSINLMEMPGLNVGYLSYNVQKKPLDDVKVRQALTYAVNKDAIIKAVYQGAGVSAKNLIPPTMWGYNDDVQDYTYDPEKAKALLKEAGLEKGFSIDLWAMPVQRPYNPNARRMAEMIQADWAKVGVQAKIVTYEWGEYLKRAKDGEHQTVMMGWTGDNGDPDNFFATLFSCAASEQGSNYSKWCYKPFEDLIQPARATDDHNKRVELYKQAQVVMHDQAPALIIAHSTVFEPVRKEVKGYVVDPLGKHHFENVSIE
Assay: isothermal titration calorimetry
Excerpt: isothermal titration calorimetry on DppA (E. coli dipeptide binding protein)

Kd [nM]	Compound
357	C[C@H](N)C(=O)N[C@@H](Cc1ccccc1)C(=O)O [AF, Alanine–Phenylalanine (A–F)]
37	C[C@H](N)C(=O)N[C@@H](C)C(=O)O [AA, Alanine–Alanine (A–A)] (H-Ala-Ala-OH)
